These results are taken from patent publication US20250319053A1, “INHIBITORS OF THE PEPTIDYL-PROLYL CIS/TRANS ISOMERASE (PIN1), COMBINATIONS AND USES THEREOF” (DANA-FARBER CANCER INSTITUTE, INC., priority 2021, published 2025).

One data set deals with advanced PDAC patients. The conditions noted are these: cited from earlier work.
Another data set has as its system human PDAC organoids. In words: Organoid apoptosis assay, co-culture with activated human PBMCs. The class given is cell-based. The conditions noted are these: Pin1i−2 at 5 μM 3 days, αPD1 at 200 μg/mL for 40 hrs. The protocol:
For assaying the effects of Pin1 inhibition on anti-PD1 or PDL1 sensitivity, organoids and PBMCs were co-culture as described previously (Dijkstra et al., 2018; Jiao et al., 2017). […] Human PBMCs (Precision for Medicine) were stimulated by PDAC organoid culture media, and 8.0×10^4 PBMCs were incubated with 2 pl CD3/28 beads (11161D, GIBCO) and 30 U recombinant IL-2 (200-02, Peprotech) per well in 96-well plates for 24 hours before starting co-culture. […] At the start of co-culture, a green-fluorescent caspase 3/7 probe reagent (R37111, Invitrogen) and Hoechst (135102, Invitrogen) were added to visualize cells undergoing apoptosis. Apoptotic organoids were monitored by live-cell time lapse imaging was started 2 hours after the start of co-culture using BZ-X800 fluorescence microscope (KEYENCE) and quantified using BZ-X800 analyzer (ver. 1.1.1.8, KEYENCE). […] Synergy scores were calculated by Synergyfinder ver 2 (synergyfinder.fimm.fi/) (Ianevski et al., Nucleic Acids Res. 48 IW1), […]-[…] (2020)).

Data set [1] relates to primary human CAFs (CAF1 and CAF2). Put plainly: Cell proliferation assay (CellTiter-Glo) in CAFs. The class given is cell-based. The conditions noted are these: 72 hrs. The procedure:
(§1) Cells were seeded at a density of 5000 cells (PDAC1 and PDAC2), or 3000 cells (CAF1 and CAF2) per well in 96-well flat-bottomed plates and incubated for 24 h in culture medium. […] Control cells received dimethyl sulfoxide (DMSO) at a concentration equal to that of drug-treated cells for 72 hours. The cell viability was determined by CellTiter-Glo® 2.0 Assay (Promega) following the manufacturer's instructions.

The next data set deals with Pin1 (Homo sapiens, UniProt Q13526). Put plainly: Immunoblotting for Pin1 and substrate oncoproteins in CAFs. It counts as cell-based. Details: endogenous in cells. The conditions noted are these: 72 hrs. The procedure: Cultured cells were lysed in RIPA buffer (50 mM Tris-HCl, pH 7.2, 150 mM NaCl, 1% NP40, 0.1% sodium dodecyl sulfate (SDS), 0.25% Na-deoxycholate) with freshly added phosphatase inhibitors containing 5 mM NaF and 0.2 mM sodium orthovanadate (NA3VO4), and proteinase inhibitors containing 2 μg/mL Aprotinin, 2 μg/mL Leupeptin, 2 μg/mL Pepstatin A, 1 mM DTT (dithiothreitol), 0.5 mM 4-(2-aminoethyl)-benzenesulfonyl fluoride (AEBSF), and 20 mM Chymotrypsin, and then mixed with the SDS sample buffer and loaded onto a gel after boiling for 10 minutes at 95° C. The proteins were resolved by polyacrylamide gel electrophoresis and transferred to PVDF membrane. The transferred membrane was washed three times with Tris-buffered saline containing 0.1% Tween 20 (TBST). After blocking with TBST containing 5% milk or 3% bovine serum albumin (BSA) for 1 h room temperature, the membrane was incubated with the appropriate primary antibody (diluted 1:500-1:10000) in 5% milk or 3% BSA-containing TBST at 4° C. overnight. […] After three extensive washes with TBST for a total of 30 min, the immunoblots were visualized by enhanced chemi-luminescence. Immunoblotting results were quantified using ImageJ (NIH).
Chain of Pin1 (Q13526 whole entry): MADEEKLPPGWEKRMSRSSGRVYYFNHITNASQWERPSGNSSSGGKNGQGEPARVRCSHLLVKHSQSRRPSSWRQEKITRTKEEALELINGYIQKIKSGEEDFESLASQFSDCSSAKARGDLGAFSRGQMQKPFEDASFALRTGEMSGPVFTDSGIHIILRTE
Background: A western blot detects proteins with antibodies after separation by electrophoresis.

The subject of another data set is splenocytes. In words: Immune profiling of splenocytes by flow cytometry. It counts as in vivo, mouse. The conditions noted are these: 40 mg/kg i.p. daily for 5 weeks. The protocol: After filtered, cell lysate was collected. To assess cell surface expressions, cells were harvested by non-enzymatic cell dissociation solution, and resuspend in blocking solution (Cell Staining Buffer, BioLegend). Cells were incubated with following antibodies; […] For FOXP3 staining, cells were fixed and permeabilized using Foxp3/Transcription Factor Staining Buffer Set (00-5523, eBioscience), and incubated with FOXP3-FITC (11-5773-82, Invitrogen) for 30 mins at RT. For Granzyme B staining, cells were fixed and permeabilized using Intracellular Fixation & Permeabilization Kit (88-8824-00, eBioscience), and incubated with Granzyme B-FITC (515403, BioLegend) for 30 mins at RT. All antibodies were diluted according to manufacture instruction. Cells were analyzed using CytoFLEX flow cytometer and CytExpert software (Beckman Coulter, IN, USA). Table 2 is a table of immune profiling of splenocytes from Pin1i−2 treated non-tumor-bearing B6 mice. See also FIG. 1A-FIG. 1G, FIG. 8A-FIG. 8O, and FIG. 9A-9L. WT B6 mice (non-tumor-bearing mice) were treated with vehicle or Pin1i−2 (40 mg/kg, i.p., daily) for 5 weeks, followed by examining the immune profile of splenocytes using flow cytometry (n=5).
(In general: Flow cytometry measures light scatter and fluorescence of single cells or particles in a stream.)

Data set [2] relates to human PDAC cells (PDAC1 and PDAC2). Put plainly: Cell proliferation assay (CellTiter-Glo) in PDAC cells. The class given is cell-based. As to conditions: 72 hrs. The procedure: as §1
Background: ATP-based viability assays read luminescence as a measure of living cells.

Data set [3] is described as follows: Body weight of Pin1i-2 treated non-tumor-bearing B6 mice. It counts as in vivo, mouse. The conditions noted are these: Day 0 = 100. The protocol:
Table 1 is a table of blood test results together with body weight of Pin1i−2 treated non-tumor-bearing B6 mice. See also FIG. 1A-FIG. 1G, FIG. 8A-FIG. 8O, and FIG. 9A-9L. WT B6 mice (non-tumor-bearing mice) were treated with vehicle or Pin1i−2 (20, 40, or 60 mg/kg, i.p., daily) for 5 weeks, followed by examining mice body weight or the RBC, Hb, Plate, and kidney and liver function using blood tests at 3 weeks and 5 weeks (n=5).

For the compound `Nc1ccn([C@@H]2O[C@H](CO)[C@@H](O)C2(F)F)c(=O)n1` [GEM, gemcitabine, reference compound], in the data set with advanced PDAC patients, the “overall survival (OS)” value is recorded as 6.6 month and the response rate is on record as 23.8%.

`CC(C)(C)CN(C(=O)CCl)C1CCS(=O)(=O)C1` (stereo not shown) [Pin1i−2, sulfopin]: the “apoptosis of WT organoids” value with human PDAC organoids was “promoted the apoptosis of WT organoids”. In addition, the “CAF proliferation (cell growth)” value in data set [1] was “suppression of CAF proliferation”. Further, on Pin1, the “Pin1 and its substrate oncoproteins (IB)” value was “dose-dependently reduced Pin1 and its many substrate oncoproteins”. For the same compound, in the data set on splenocytes (n=5), the “CD3−CD11b+ Myeloid cells” value is given as 6.79 % of CD45+ cell, the “CD8a+ T-cell” value is reported as 14.30 % of CD45+ cell, the “CD11b+Ly6G+ Myeloid Cells” value was 1.71 % of CD45+ cell and the “CD11c+MHC-II+ DCs” value was 1.48 % of CD45+ cell. In the data set on splenocytes (n=5), the “CD45+CD3+ Cells” value is 27.77 % of CD45+ cell and the “F4/80+ Macrophages” value is reported as 3.54 % of CD45+ cell. For the same compound, in the data set with splenocytes (listed under CD8a+ T-cell), the CTLA4 came to 76.08 MFI, the Lag3 came out at 449.84 MFI, the MHC-ClassI is 11456.80 MFI and the PD-1 is reported as 67.90 MFI. The compound also gave a PD-L1 with splenocytes (listed under CD11b+Ly6G+ Myeloid Cells) of 12447.46 MFI. The compound further registered a PD-L1 with splenocytes (listed under CD11c+MHC-II+ DCs) of 89012.88 MFI. Further, the “cell growth (proliferation assay)” value in data set [2] (PDAC cells) is listed as “dose-dependently suppress cell growth”. Further, the “Pin1 KO cell growth” value in data set [2] (Pin1-KO PDAC2 cells) was “fails to suppress Pin1 KO cell growth”. Moreover, the Body weight in data set [3] (20 mg/kg i.p. daily, 3 weeks) is given as 105.5371%. In data set [3] (20 mg/kg i.p. daily, 5 weeks), this compound gave a Body weight of 107.5%. The Body weight in data set [3] (40 mg/kg i.p. daily, 3 weeks) is listed as 107.9%. The Body weight in data set [3] (40 mg/kg i.p. daily, 5 weeks) was 106.7%. Also, the Body weight in data set [3] (60 mg/kg i.p. daily, 3 weeks) amounted to 104.8%. In data set [3] (60 mg/kg i.p. daily, 5 weeks), this compound came in with a Body weight of 107.3%.
